Counter-ions that a name gives are not always drawn.
What follows are compounds tested on episomal HPV-16 DNA in W12-20850 cells (assay: W-12 cellular assay (hybrid capture quantification of episomal HPV-16 DNA)). Settings: Human papillomavirus 16, 96 h; W12-20850 cells, four days incubation, episomal HPV-16 DNA by hybrid capture, inhibition relative to untreated control cells; read-out: W-12.
Format: cell-based, HPV16
Method: Compounds of the current invention are believed useful in the treatment and/or prophylaxis of conditions and diseases associated with HPV infection. Activity mediated through HPV was determined using the following W-12 cellular assay.
The W12 cell line used contains HPV16 DNA and was derived from a low-grade cervical dysplasia tissue by Margaret Stanley and subsequently clonally selected by Paul Lambert (University of Wisconsin). One of these clones, W12-20850, contains 1000 copies of episomal HPV16 DNA and was used in the cell-based assay. W12-20850 cells were routinely cultured with a gamma-irradiated (6000 rads) feeder layer of 3T3 cells. Assays, however, were run in the absence of a 3T3 feeder layer. W12-20850 and 3T3 cells were routinely split when they were sub-confluent. W12-20850 were grown in W12 Medium which is constituted of 25% DMEM (Gibco BRL, Cat # 12430-047), 75% F12 Media (Gibco BRL, Cat # 11765-021) and 2.5% FBS. The additives include […] Adenine (Sigma, Cat # A-9795), […] Hydrocortisone (Calbiochem, Cat # 386698); 5.0 mg/ml Bovine Insulin (Sigma, Cat # I-1882), 8.4 ng/ml cholera toxin (Fluka, Cat # 26694) and 10 ng/ml EGF (Invitrogen, Cat # 13247-051). 3T3 cells were grown in DMEM containing 10% FBS. Cell lines were incubated at 37° C., in the presence of 5% CO2.
For the assay, W12-20850 cells were seeded into a 96 well plate-containing compound. Plates were incubated at 37° C. in the presence of 5% CO2, for four days. On the fourth day, cells were lysed and the amount of episomal. HPV-16 DNA was quantified using a non-radioactive hybrid capture technique with HPV-16 specific capture and detection probes. The percent inhibition relative to untreated control cells' was then determined.
The hybrid capture assay is run in a 96 well plate format. Hybridization plates (Nunc Maxisorb Cat # 450320) were coated with a mixture of capture probe and ReactiBind solution for at least 4 hours and then washed with 0.2×SSC, 0.05% Tween20 (SSCT) prior to blocking with […] of 0.2 N NaOH, 1% Igepal, 10 mg/ml hsDNA for 6-8 hours. The hybridization was carried out by mixing 27 μl of lysed cells with 45 μl of denatured detection probe in 6M guanidine isothiocyanate. To prevent evaporation, 50 μl of mineral oil was added to each well. The plate was then heated to 90° C. for 6.5 minutes and the hybridization continued at 42° C. overnight. Assay plates were washed 6 times with SSC/T. Anti-digoxigenin HRP-conjugated Ab (Boehringer Mannheim 1207733, 1:5000) was incubated in the wells for 30 min at room temperature and washed with PBS/0.05% Tween-20. SuperSignal LBA substrate (Pierce Cat # 37070) was added, and chemiluminescence was measured using Wallac 1420 Victor plate reader.

IC50 | SMILES
0.774 µM | Brc1ccc2[nH]c3c(c2c1)CCCCC3NCCc1ccccc1 (centres unmarked) [Example 56, 2-Bromo-N-(2-phenylethyl)-5,6,7,8,9,10-hexahydrocycloheDta[b]indol-6-amine hydrochloride]
3.7 µM | Brc1ccc2[nH]c3c(c2c1)CCC[C@@H]3NC1Cc2ccccc2C1 [Example 28, (1S)-6-Bromo-N-(2.3-dihydro-1H-inden-2-yl)-2,3,4,9-tetrahydro-1H-carbazol-1-amine hydrochloride salt]
10.3 µM | NC(=O)NC1CCCc2c1[nH]c1ccc(Br)cc21 (centres unmarked) [Example 70, N-(6-Bromo-2,3,4,9-tetrahydro-1H-carbazol-1-yl)urea]
0.38 µM | O=C(NC1CCCc2c1[nH]c1ccc(Br)cc21)C1CCCCC1 (centres unmarked) [Example 68, N-(6-Bromo-2,3,4,9-tetrahydro-1H-carbazol-1-yl)cyclohexanecarboxamide]
13 µM | CC(=O)NC1CCCc2c1[nH]c1ccc(Br)cc21 (centres unmarked) [Example 67, N-(6-Bromo-2,3,4,9-tetrahydro-1H-carbazol-1-yl)acetamide]
0.095 µM | Brc1ccc2[nH]c3c(c2c1)CCCC3OCc1ccccc1 (centres unmarked) [Example 64, 6-Bromo-1-[(phenylmethyl)oxy]-2,3,4,9-tetrahydro-1H-carbazole]
11 µM | Brc1ccc2[nH]c3c(c2c1)CCC3NCCc1ccccc1 (centres unmarked) [Example 50, 7-Bromo-N-(2-phenylethyl)-1,2,3,4-tetrahidrocyclopenta[b]indol-3-amine hydrochloride salt]
5.3 µM | C[C@@H](CCc1ccccc1)NC1CCCc2c1[nH]c1ccccc21 (stereo partly drawn) [Example 24, N-[(1S)-1-Methyl-3-Phenylpropyl]-2,3,4,9-tetrahydro-1H-carbazol-1-aminehydrochloride salt]
1.5 µM | c1ccc2c3c([nH]c2c1)C(NCc1ccc2c(c1)OCO2)CCC3 (centres unmarked) [Example 25, N-(1.3-Benzodioxol-5-ylmethyl)-2,3,4,9-tetrahydro-1H-carbazol-1-amine hydrochloride salt]
29 µM | C[C@@H](N[C@H]1CCc2c1[nH]c1ccc(Br)cc21)c1ccccc1 [Example 52, (3S)-7-Bromo-N-[(1R)-1-phenylethyl]-1,2,3,4-tetrahydrocyclobenta[b]indol-3-amine hydrochloride salt]
5 µM | CC(C)NC(=O)NC1CCCc2c1[nH]c1ccc(Br)cc21 (centres unmarked) [Example 65, N-(6-Bromo-2,3,4,9-tetrahydro-1H-carbazol-1-yl)-N′-isopropylurea]
2.3 µM | CS(=O)(=O)NC1CCCc2c1[nH]c1ccc(Br)cc21 (centres unmarked) [Example 69, N-(6-Bromo-2,3,4,9-tetrahydro-1H-carbazol-1-yl)methanesulfonamide]

Same assay, conditions: Human papillomavirus 16, W12-20850, 96 h, read-out: W-12

SMILES | IC50
Brc1ccc2[nH]c3c(c2c1)CCC[C@H]3NC1Cc2ccccc2C1 [Example 27, (1R)-6-Bromo-N-(2,3-dihydro-1H-inden-2-yl)-2,3,4,9-tetrahydro-1H-carbazol-1-amine hydrochloride salt] | 0.057 µM
Cc1ccc2[nH]c3c(c2c1)CCCC3N[C@@H](C)c1ccccc1 (stereo partly drawn) [Example 45, 6-Methyl-N-[(1S)-1-phenylethyl]-2,3,4,9-tetrahydro-1H-carbazol-1-amine hydrochloride salt] | 7 µM
Brc1ccc2[nH]c3c(c2c1)CCCC3NC(c1ccccc1)c1ccccc1 (centres unmarked) [Example 60, N-Benzhydryl-6-bromo-2,3,4,9-tetrahydro-1H-carbazol-1-amine hydrochloride] | 0.014 µM
OC[C@H](NC1CCCc2c1[nH]c1ccccc21)c1ccccc1 (stereo partly drawn) [Example 23, (2R)-2-Phenyl-2-(2,3,4,9-tetrahydro-1H-carbazol-1-ylamino)ethanol hydrochloride salt] | 30 µM
C[C@@H](NC1CCCc2c1[nH]c1ccccc21)c1ccccc1 (stereo partly drawn) [Example 18, N-[(1R)-1-Phenylethyl]-2,3,4,9-tetrahydro-1H-carbazol-1-amine hydrochloride salt] | 12.3 µM
CCCNC1CCCc2c1[nH]c1ccccc21 (centres unmarked) [Example 21, N-Propyl-2,3,4,9-tetrahydro-1H-carbazol-1-amine hydrochloride salt] | 40 µM
COc1ccc2[nH]c3c(c2c1)CCCC3NCc1ccccc1 (centres unmarked) [Example 53, N-Benzyl-6-methoxy-2,3,4,9-tetrahydro-1H-carbazol-1-amine hydrochloride salt] | 7.6 µM
c1ccc(CNC2CCCc3c2[nH]c2ccccc32)cc1 (centres unmarked) [Example 15, N-Benzyl-2,3,4,9-tetrahydrocarbazole-1-amine hydrochloride salt] | 6.6 µM
C[C@@H](NC1CCCc2c1[nH]c1ccc(C(F)(F)F)cc21)c1ccccc1 (stereo partly drawn) [Example 59, N-[(1R)-1-Phenylethyl]-6-(trifluoromethyl)-2,3,4,9-tetrahydro-1H-carbazol-1-amine hydrochloride] | 0.287 µM
COCCNC1CCCc2c1[nH]c1ccccc21 (centres unmarked) [Example 22, N-(2-Methoxyethyl)-2,3,4,9-tetrahydro-1H-carbazol-1-amine hydrochloride salt] | 47 µM
FC(F)(F)c1ccc2[nH]c3c(c2c1)CCCC3NCc1ccccc1 (centres unmarked) [Example 58, N-Benzyl-6-(trifluoromethyl)-2,3,4,9-tetrahydro-1H-carbazol-1-amine hydrochloride] | 1 µM
Cn1c2c(c3cc(Br)ccc31)CCCC2NCCc1ccccc1 (centres unmarked) [Example 38, 6-Bromo-9-methyl-N-(2-phenylethyl)-2,3,4,9-tetrahydro-1H-carbazol-1-amine hydrochloride salt] | 27 µM
C[C@@H](NC1CCCc2c1[nH]c1cc(Br)ccc21)c1ccccc1 (stereo partly drawn) [Example 62, 7-Bromo-N-[(1R)-1-phenylethyl]-2,3,4,9-tetrahydro-1H-carbazol-1-amine hydrochloride] | 8 µM
C[C@@H](N[C@@H]1CCCc2c1[nH]c1ccc(Br)cc21)c1ccccc1 [Example 31, (1R)-6-bromo-N-[(1R)-1-phenylethyl]-2,3,4,9-tetrahydro-1 H-carbazol-1-amine hydrochloride salt] | 0.03 µM
CN(CCc1ccccc1)C1CCCc2c1[nH]c1ccc(Br)cc21 (centres unmarked) [Example 37, 6-Bromo-N-methyl-N-(2-phenylethyl)-2,3,4,9-tetrahydro-1H-carbazol-1-amine hydrochloride salt] | 3 µM
C[C@@H](CNC1CCCc2c1[nH]c1ccc(Br)cc21)c1ccccc1 (stereo partly drawn) [Example 39, 6-Bromo-N-[(2R)-2-phenylpropyl]-2,3,4,9-tetrahydro-1H-carbazol-1-amine hydrochloride salt] | 0.16 µM
C[C@H](NC1CCCc2c1[nH]c1ccc(Br)cc21)c1ccccc1 (stereo partly drawn) [Example 34, 6-Bromo-N-[(1S)-1-phenylethyl]-2,3,4,9-tetrahydro-1H-carbazol-1-amine hydrochloride salt] | 0.29 µM
C[C@H](N[C@H]1CCCc2c1[nH]c1ccc(Br)cc21)c1ccccc1 [Example 35, (1S)-6-Bromo-N-[(1S)-1-phenylethyl]-2,3,4,9-tetrahydro-1H-carbazol-1-amine hydrochloride salt] | 3 µM
Cc1ccc2[nH]c3c(c2c1)CCC[C@H]3N[C@H](C)c1ccccc1 [Example 43, hydrochloride salt] | 0.24 µM
C[C@@H](NC1CCCc2c1[nH]c1ccc(Br)cc21)c1ccccc1 (stereo partly drawn) [Example 30, 6-Bromo-N-[(1R)-1-phenylethyl]-2,3,4,9-tetrahydro-1H-carbazol-1-amine hydrochloride salt] | < 0.2 µM
C[C@H](N[C@@H]1CCCc2c1[nH]c1ccc(Br)cc21)c1ccccc1 [Example 36, (1R)-6-Bromo-N-[(1S)-1-phenylethyl]-2,3,4,9-tetrahydro-1H-carbazol-1-amine hydrochloride salt] | 0.02 µM
c1ccc(CCNC2CCCc3c2[nH]c2ccccc32)cc1 (centres unmarked) [Example 17, N-(2-Phenylethyl)-2,3,4,9-tetrahydro-1H-carbazol-1-amine hydrochloride salt] | 7.4 µM
Fc1ccc(CNC2CCCc3c2[nH]c2ccc(Br)cc32)cc1 (centres unmarked) [Example 57, 6-Bromo-N-(4-fluorobenzyl)-2,3,4,9-tetrahydro-1H-carbazol-1-amine hydrochloride] | 0.139 µM

Reference: patent publication US7622494B2, “Chemical compounds” (SmithKline Beecham Corporation, priority 2003, dated 2009)
